Where a name gives a salt, the structure may show the parent alone. Read-outs that look alike come from different tables or passages of the source.

Data set [1] addresses T1, S1P1 (Homo sapiens, UniProt P21453). In words: S1P1 internalization assay in S1P1-U2OS cells (cell imaging). It counts as cell-based. The settings on record: U2OS cells expressing S1P1-EGFP, 1 hour. An outline of the steps: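 U2OS cells stably expressing human S1P1-EGFP, serum-starved 2 h in medium with 0.1% fatty-acid-free BSA, then treated with compound for 1 h at 37° C. After paraformaldehyde fixation and Hoechst staining, internalization imaged as S1P1-EGFP spot count per nucleus.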
Target sequence in this assay (P21453 whole entry): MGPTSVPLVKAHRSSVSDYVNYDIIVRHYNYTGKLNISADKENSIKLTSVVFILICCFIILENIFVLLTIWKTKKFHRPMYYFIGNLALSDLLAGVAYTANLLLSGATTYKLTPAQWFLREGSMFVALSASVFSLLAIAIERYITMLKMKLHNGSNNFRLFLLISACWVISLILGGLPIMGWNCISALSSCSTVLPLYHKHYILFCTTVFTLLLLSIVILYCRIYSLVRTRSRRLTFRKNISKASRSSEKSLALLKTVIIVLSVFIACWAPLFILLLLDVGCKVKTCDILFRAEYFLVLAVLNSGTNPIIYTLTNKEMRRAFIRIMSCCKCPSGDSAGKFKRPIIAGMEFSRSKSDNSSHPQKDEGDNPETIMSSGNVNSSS

For data set [2], the target named is T1, S1P1. Put plainly: Receptor binding assay, [33P]sphingosine 1-phosphate competition (SPA), S1P1.
Target sequence in this assay (P21453 whole entry, species assumed): as the sequence (P21453 whole entry) above
The target in another data set is S1P3 (Homo sapiens, UniProt Q99500). Put plainly: Receptor binding assay, [33P]sphingosine 1-phosphate competition (SPA), S1P3.
The target of data set [3] is T1, S1P1. In words: 35S-GTPγS binding on membranes from CHO cells expressing S1P1. It counts as biochemical. The settings on record: read-out: S1P1/GTPG EC50. As for the experimental part:
Membranes were prepared from CHO cells expressing S1P1 or S1P3 for use in ligand and […] binding studies. Cells were suspended in 50 mM TRIS, pH 7.4, 2 mM EDTA, 250 mM Sucrose (buffer A) and 1× Complete protease inhibitor cocktail (Roche), and disrupted at 4° C. by N2 decompression using a cell disruption bomb (Parr Instrument). Following centrifugation at 1000 RPM for 10 min at 4° C., the supernatant was diluted (2×) in buffer A and centrifuged again at 19000 RPM for 75 min at 4° C. The pellet was then suspended in 10 mM HEPES, pH 7.4, 1 mM EDTA, 250 mM Sucrose (Buffer B), and 1× Complete EDTA-free protease inhibitor cocktail and homogenized using a potter. Membranes were flash frozen in liquid N2 and stored at −80° C.
Membranes (1 to 10 μg protein) prepared as described above, were incubated in 96-well Scintiplates (PerkinElmer) with test compounds diluted in DMSO, in 140 μl of 20 mM HEPES, pH 7.4, 10 mM MgCl2, 2 μg/well Saponin, 0.2% fatty acid free BSA (Assay buffer), 125 mM NaCl and 1.5 μM GDP. […] Supernatant was discarded and membrane bound radioactivity was measured on a PerkinElmer 1450 MicroBeta counter. Triplicate samples were averaged and expressed as % response relative to S1P activation in absence of compound (n=2).
The “potency” or the “activity” of the compounds is determined by the EC50 values as evaluated in the above described 35S-GTPγS binding assay.
Target sequence in this assay (P21453 whole entry, species assumed): as the sequence (P21453 whole entry) above
Background: GTPγS resists hydrolysis and so accumulates on activated G proteins.

A short description of data set [4]: Pharmacokinetics (PK parameters from lymphopenia, mouse). It counts as in vivo. To be noted: PK-PD (30 mpk). As for the experimental part:
(§1) Female C57BL/6 mice (Elevage Janvier) (8 week old) receive S1P agonists by oral route. Blood is sampled in heparinized (100 IU/kg, ip) mice by intracardiac or retroorbital puncture under isoflurane anesthesia 2 to 120 hrs after drug treatment. The white blood cells (lymphocytes and neutrophils) are counted using a Beckman/Coulter counter. The quality of blood sampling is assessed by counting erythocytes and platelets.
The pharmacoinetic properties of compound of example 70, N-(2-fluoro-4-{5-[2′-methyl-2-(trifluoromethyl)biphenyl-4-yl]-1,2,4-oxadiazol-3-yl}benzyl)-N-methylglycine, are the following: […]

In another data set the test system is lymphocytes. In words: Model of S1P agonists-induced lymphopenia in mice. The format is in vivo. The settings on record: oral route. The method, then: as §1
Setting [5] is: 96 well-plate, read-out: S1P1 binding Ki (M) (96 well-plate).
Where [6] appears, read: 384 well-plate, read-out: S1P1 binding Ki (M) (384 well-plate).
[7] abbreviates: 96 well-plate, read-out: S1P3 binding Ki (M) (96 well-plate).
The mark [8] stands for this setting: 384 well-plate, read-out: S1P3 binding Ki (M) (384 well-plate).
The mark [9] stands for this setting: female, C57BL/6, plasma, po, 30 mg/kg.

Chain of S1P3 (Q99500 whole entry, species assumed): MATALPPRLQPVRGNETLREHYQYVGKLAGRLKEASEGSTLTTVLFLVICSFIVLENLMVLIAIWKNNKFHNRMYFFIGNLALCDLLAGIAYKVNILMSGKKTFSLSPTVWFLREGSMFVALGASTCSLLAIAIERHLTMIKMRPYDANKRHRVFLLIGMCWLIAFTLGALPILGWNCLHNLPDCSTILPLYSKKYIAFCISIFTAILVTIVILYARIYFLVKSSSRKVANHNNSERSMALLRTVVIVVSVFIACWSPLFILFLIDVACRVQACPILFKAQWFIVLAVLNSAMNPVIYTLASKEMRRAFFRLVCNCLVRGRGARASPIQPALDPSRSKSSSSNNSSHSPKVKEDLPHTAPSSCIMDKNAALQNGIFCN

Consider `COCc1cc(-c2nc(-c3cccc(CN(C)CC(=O)O)c3)no2)ccc1-c1ccccc1C(F)(F)F` (as salt: hydrochloride) [Example 49, N-(3-{5-[2-(methoxymethyl)-2′-(trifluoromethyl)biphenyl-4-yl]-1,2,4-oxadiazol-3-yl}benzyl)-N-methylglycine], for which the melting point (in general, the temperature of the solid-liquid transition) stood at 207 °C.
As to `Cc1ccccc1-c1ccc(-c2nc(-c3ccc(CN(C)CC(=O)O)c(F)c3)no2)cc1C(F)(F)F` (as salt: hydrochloride) [Example 70, N-(2-fluoro-4-{5-[2′-methyl-2-(trifluoromethyl)biphenyl-4-yl]-1,2,4-oxadiazol-3-yl}benzyl)-N-methylglycine], the melting point amounted to 183 °C.
Same read-out and setting: with `Cc1cc(-c2nc(-c3cc(F)cc(CN(C)CC(=O)O)c3)no2)ccc1-c1ccccc1C(F)(F)F` (as salt: hydrochloride) [Example 104, N-(3-fluoro-5-{5-[2-methyl-2′-(trifluoromethyl)biphenyl-4-yl]-1,2,4-oxadiazol-3-yl}benzyl)-N-methylglycine] the figure was 207 °C; with `CCOc1cc(-c2nc(-c3ccc(CN(C)CC(=O)O)cc3)no2)ccc1-c1ccccc1C(F)(F)F` (as salt: hydrochloride) [Example 115, N-(4-{5-[2-ethoxy-2′-(trifluoromethyl)biphenyl-4-yl]-1,2,4-oxadiazol-3-yl}benzyl)-N-methylglycine], 210 °C; with `CN(CC(=O)O)Cc1cc(F)cc(-c2noc(-c3ccc(-c4ccccc4C(F)(F)F)c(Cl)c3)n2)c1` (as salt: hydrochloride) [Example 136, N-(3-{5-[2-chloro-2′-(trifluoromethyl)biphenyl-4-yl]-1,2,4-oxadiazol-3-yl}-5-fluorobenzyl)-N-methylglycine], 212 °C.
`Cc1ccccc1-c1ccc(-c2nc(-c3cccc(CN(C)CC(=O)O)c3)no2)cc1C(F)(F)F` [Example 14, N-methyl-N-(3-{5-[2′-methyl-2-(trifluoromethyl)biphenyl-4-yl]-1,2,4-oxadiazol-3-yl}benzyl)glycine]: the EC50 at S1P1 [1] amounted to 8.75 nM; at S1P1 [3] it was 1.24 nM. Besides, the inhibition constant Ki – broadly, the equilibrium dissociation constant of an inhibitor or competing ligand from its target – on S1P1 [2] (setting [5]) was found to be 4.47e-10 M; at S1P1 [2] (setting [6]), 1.93e-09 M; at S1P3 (setting [7]) it was 2.36e-07 M; at S1P3 (setting [8]) it was 1.68e-07 M.
In the case of `Cc1ccccc1-c1ccc(-c2nc(-c3ccc(CN(C)CC(=O)O)c(F)c3)no2)cc1C(F)(F)F` [Example 70, N-(2-fluoro-4-{5-[2′-methyl-2-(trifluoromethyl)biphenyl-4-yl]-1,2,4-oxadiazol-3-yl}benzyl)-N-methylglycine], the “Lymphe node/plasma ratio: 24 h” value in data set [4] (24 h) was 4.4. Besides, the “Lymphe node/plasma ratio: 48 h” value in data set [4] (48 h) is given as 4.0. The Kp in data set [4] (female, C57BL/6, brain, oral, 30 mg/kg, ratio of AUCZ, read-out: Brain/plasma ratio: AUCZ (h * ng/ml)) worked out at 2.4. Further, in data set [4] (setting [9]), the AUC(0-inf) (usually total exposure, with the tail of the curve extrapolated) came to 104 µg·h/mL; the CL/F – broadly, clearance divided by bioavailability, as obtained after extravascular dosing – is 5 mL/min/kg; the peak level (Cmax) was 8780 ng/mL; the time of peak concentration (Tmax) (as a rule, the time at which the peak concentration occurs) was 2 h. Moreover, the half-life (as a rule, how long it takes for the measured level to halve) in data set [4] (setting [9]) is 7.5 h. For the same compound, the “% of lymphopenia in mouse at 48 h” value with lymphocytes is 72 +/− 8%. The compound further showed an EC50 at S1P1 [1] of 13 nM. Further, the inhibition constant (Ki) on S1P1 [2] (setting [5]) was found to be 6.81e-10 M. The inhibition constant (Ki) on S1P1 [2] (setting [6]) was 2.19e-09 M. Besides, on S1P3 (setting [7]), the Ki came to 4.43e-07 M. Also, the inhibition constant (Ki) on S1P3 (setting [8]) stood at 4.11e-07 M.
`Cc1cc(-c2noc(-c3ccc(-c4ccccc4C)c(C(F)(F)F)c3)n2)ccc1CN(C)CC(=O)O` [Example 154, 2-(methyl(2-methyl-4-(5-(2′-methyl-2-(trifluoromethyl)biphenyl-4-yl)-1,2,4-oxadiazol-3-yl)benzyl)amino)acetic acid] came in with an EC50 at S1P1 [1] of 17.3 nM. The inhibitory constant (Ki) at S1P1 [2] (setting [6]) worked out at 3.16e-09 M; at S1P3 (setting [8]), 1.07e-06 M.
On S1P1 [1], `CCc1cc(-c2noc(-c3ccc(-c4ccccc4C)c(C(F)(F)F)c3)n2)ccc1CN(C)CC(=O)O` [Example 155, 2-((2-ethyl-4-(5-(2′-methyl-2-(trifluoromethyl)biphenyl-4-yl)-1,2,4-oxadiazol-3-yl)benzyl)(methy)amino)acetic acid] yielded an EC50 of 17.3 nM. Moreover, the inhibitory constant (Ki) at S1P1 [2] (setting [6]) amounted to 3.72e-09 M; at S1P3 (setting [8]), 8.1e-06 M.

Source of the values: patent US8802704B2, “Oxadiazole derivatives” (Merck Serono SA, priority 2009, dated 2014).
